In patent US8592161B2, “Mutational profiles in HIV-1 protease correlated with phenotypic drug resistance” (Janssen R&D Ireland, priority 2002, dated 2013):

Columns and labels:
Assay in all cases: In vitro antiviral activity in acutely infected MT4 cells, selected strain
Type in all cases: cell-based
[1] = test system: HIV-1/LAI strain selected with Comp 1 (100 nM, 195 days), protease S37N R41S K70E; conditions: for EC50: Human immunodeficiency virus 1, Table 2, strain S37N R41S K70E (Comp 1 100 nM, 195 days), read-out: median EC50; for median FC (fold change in EC50 as compared to wild type): Table 2, strain S37N R41S K70E (Comp 1 100 nM, 195 days)
Experimental: (§1) Determination of the antiviral activity of a compound was done as described in Pauwels R. et al. (J Virol Methods 1988; 20(4):309-21). Various concentrations of the test compounds were brought into each well of a flat-bottom microtiter plate. Subsequently, HIV and MT4 cells were added to a final concentration of 200-250 50% cell culture infectious doses (CCID50)/well and 30,000 cells/well, respectively. After 5 days of incubation (37° C., 5% CO2), the cytopathic effect of the replicating virus was determined by the tetrazolium colorimetric MTT method. The dose protecting 50% of the cells from virus cytopathic effect was defined as the EC50, while the dose achieving 90% protection was defined as the EC90.
(§2) MT4-LTR-EGFP cells were infected at a multiplicity of infection (MOI) of 0.01 to 0.001 CCID50/cell in the presence of inhibitor. The starting concentration of the inhibitor was two to tee times the EC50, a suboptimal concentration. The cultures were sub-cultivated and scored microscopically on virus-induced fluorescence and cytopathicity every 3-4 days. The cultures were sub-cultivated in the presence of the same compound concentration until signs of virus replication were observed. The escaping virus was further cultivated in the presence of the same inhibitor concentration in order to enrich the population in resistant variants. If full virus breakthrough was observed the supernatant was collected and stored (new virus strain). Afterwards, the same virus was challenged with a higher compound concentration in order to select variants able to grow in the presence of as high as possible inhibitor concentrations. From the new viruses, a virus stock was grown in the absence of inhibitor.
(§3) In vitro drug selection experiments starting from wild-type HIV-1 under pressure of compound 1, compound 2, and Nelfinavir (NFV) have been performed. Tables 1, 2, 3, 4, and 5 show the genotypic and phenotypic characterization of the selected strains.

[2] = test system: HIV-1/LAI strain selected with Compound 2 (100 nM), protease R41I; conditions: Human immunodeficiency virus 1, Table 3, R41I strain selected with Compound 2 100 nM (head lists 116, 200, 264 days; assignment unclear), read-out: median EC50
Experimental: as §1
as §2, with “The cultures were sub-cultivated in the presence of the same compound concentration until signs of virus replication were observed.” left out, “Afterwards, the same virus was challenged with a higher compound concentration in order to select variants able to grow in the presence of as high as possible inhibitor concentrations.” left out

[3] = test system: HIV-1/LAI strain selected with Compound 1 (100 nM, 97 days), protease R41T K70E; conditions: for EC50: Human immunodeficiency virus 1, Table 1, strain R41T K70E (Compound 1 100 nM, 97 days), read-out: median EC50; for median FC (fold change in EC50 as compared to wild type): Table 1, strain R41T K70E (Compound 1 100 nM, 97 days)
Experimental: as §1
as §2, with “The cultures were sub-cultivated in the presence of the same compound concentration until signs of virus replication were observed.” left out, “Afterwards, the same virus was challenged with a higher compound concentration in order to select variants able to grow in the presence of as high as possible inhibitor concentrations.” left out

[4] = test system: HIV-1/LAI strain selected with NFV (3000 nM, 69 days), protease L10F D30N M46I V77I I85V/I N88D/N; conditions: for EC50: Human immunodeficiency virus 1, Table 5, strain L10F D30N M46I V77I I85V/I N88D/N (NFV 3000 nM, 69 days), read-out: median EC50; for median FC (fold change in EC50 as compared to wild type): Table 5, strain L10F D30N M46I V77I I85V/I N88D/N (NFV 3000 nM, 69 days)
Experimental: as §1, §2, §3

CC(C)(C)NC(=O)[C@@H]1CN(Cc2cccnc2)CCN1C[C@@H](O)C[C@@H](Cc1ccccc1)C(=O)N[C@H]1c2ccccc2C[C@H]1O [Indinavir]
EC50 [1]: 9.1 nM | median FC (fold change in EC50 as compared to wild type) [1]: 1 | EC50 [2]: 47 nM | EC50 [3]: 98 nM | median FC (fold change in EC50 as compared to wild type) [3]: 4

CC(C)(C)NC(=O)[C@@H]1C[C@@H]2CCCC[C@@H]2CN1C[C@@H](O)[C@H](Cc1ccccc1)NC(=O)[C@H](CC(N)=O)NC(=O)c1ccc2ccccc2n1 [Saquinavir]
EC50 [4]: 2.5 nM | median FC (fold change in EC50 as compared to wild type) [4]: 0 | EC50 [1]: 0.9 nM | median FC (fold change in EC50 as compared to wild type) [1]: 0.2 | EC50 [2]: 45 nM | EC50 [3]: 35 nM | median FC (fold change in EC50 as compared to wild type) [3]: 4

Cc1c(O)cccc1C(=O)N[C@@H](CSc1ccccc1)[C@H](O)CN1C[C@H]2CCCC[C@H]2C[C@H]1C(=O)NC(C)(C)C [Nelfinavir]
EC50 [1]: 9.5 nM | median FC (fold change in EC50 as compared to wild type) [1]: 0.3 | EC50 [2]: 14 nM | EC50 [3]: 18 nM | median FC (fold change in EC50 as compared to wild type) [3]: 1

CC(C)CN(C[C@@H](O)[C@H](Cc1ccccc1)NC(=O)O[C@H]1CCOC1)S(=O)(=O)c1ccc(N)cc1 [Amprenavir]
EC50 [4]: 59 nM | median FC (fold change in EC50 as compared to wild type) [4]: 3 | EC50 [1]: 14 nM | median FC (fold change in EC50 as compared to wild type) [1]: 1 | EC50 [2]: 8.4 nM | EC50 [3]: 29 nM | median FC (fold change in EC50 as compared to wild type) [3]: 1
